What was measured:
Recombinant human CDC25B = assay: CDC25B phosphatase assay, GST fusion protein, fluorescein diphosphate; assay type: biochemical; conditions: none = 100; 1 hour preincubation; concentration not given (0.3-100 μM tested)
Protocol: The compounds of the present invention are also capable of inhibiting dual specificity phosphatases, for example CDC25A and CDC25B. Phosphatases CDC25A and CDC25B are disclosed in U.S. Pat. No. 5,441,880. Inhibition of dual specificity phosphatases is defined herein as inhibition of the activity of CDC25A and/or CDC25B at a concentration of 100 μM of the inhibitor compound. In a preferred embodiment, the activity of the phosphatase is inhibited by at least 10%. In more preferred embodiments, the activity of the phophatase is inhibited by at least 25%, or even more preferably, by at least 50%. The ability of the compounds of the present invention to inhibit the phosphatases can be determined by measuring the effect of the compounds on the ability of CDC25 or CDC25B to dephosphorylate a substrate. Appropriate methods are known to those of ordinary skill in the art, and include, for example, calorimetric assays. A suitable assay is described in U.S. Pat. No. 5,441,880, the disclosure of which is incorporated herein by reference. […] The assay may be performed as a rapid calorimetric microtitration plate assay.
Compounds 1a-1r were assessed for ability to inhibit CDC25A and CDC25B activity. Recombinant human CDC25A and CDC25B were obtained as a glutahione-S-transferase (GST) fusion protein using human cDNA and standard molecular biological methods. The cDNA constructs are in a plasmid that is expressed in E. coli under the control of isopropyl-beta-D-[…] (IPTG). The bacterial pellet was disrupted by sonication, and centrifuged at 10,000×g. Using glutathione-agarose beads, the fusion protein was purified from postmicrosomal supernant fraction as described by Baratte et al. (1992) Anticancer Res. 12: 873-880. Phosphatase activity was assayed with a spectrofluorimeter under the following conditions: 1 unit (1 U=amount of protein that induces 33 fluoresence units/minute of product) of fusion protein in a final incubation mixture (150 μL) comprised of 25 mM Tris (pH=8.0), 5 mM EDTA, 33 μg/ml BSA, and 20 μM fluorescein diphosphate in 96-well microtiter plates. Plates were preincubated for 1 hour with 0 (control), 0.3, 1, 3, 10, 30, 100 μM compounds at room temperature. After the 1 hour incubation at room temperature, fluorescence of the fluorescein product (Ex. 485 nm; Em. 530 nm) were measured with a Biosystems Cytofluor II (Framingham, Mass.).

MDA-MB-231 cells = assay: Cell cycle distribution by flow cytometry (propidium iodide); assay type: cell-based, human; conditions: for cell cycle distribution: 88 μM, MDA-MB-231
Text: FIGS. 10A-D depict cell cycle distribution of human breast cancer cells after treatment with compound 1f determined by flow cytometry. […] Fluorescence channel measures intracellular propidium iodide concentration, an index of DNA content. Horizontal bars are the gating positions that allow for cell cycle analysis. […] Open bars are control cells and black bars are cells treated with compound 1f. […] The mean values were obtained from three independent determinations. Open bars are control cells and black bars are cells treated with 88 μM compound 1f.
MDA-MB-231 cells (6.5×10^5 /cm^2) were plated and incubated at 37° C. for 48 h. The plating medium was then aspirated off, and medium containing a concentration of compound 1f that caused approximately 50% growth inhibition (88-100 μM) was added for 48 to 72 h. Untreated cells at a similar cell density were used as control populations. Single cell preparations were fixed in ice-cold 1% paraformaldehyde, centrifuged at 1,000×g for 5 min, resuspended in Puck's saline, centrifuged, and resuspended in ice-cold 70% ethanol overnight. The cells were removed from fixatives by centrifugation (1,000×g for 5 min) and stained with a 5 μg/mL propidium iodide and 50 μg/mL RNase A solution. Flow cytometry analyses were conducted with a Becton Dickinson FACS Star. Single parameter DNA histograms were collected for 10,000 cells, and cell cycle kinetic parameters calculated using DNA cell cycle analysis software version C (Becton Dickinson). Experiments at 72 h were performed at least 3 independent times.

## CCCCCCCCCC(=O)NC(CCC(=O)N(CCNC(=O)c1nc(-c2ccccc2)oc1-c1ccccc1)Cc1ccccc1)C(=O)O (stereo not shown) [Compound 1f]
Recombinant human CDC25B
  CDC25B activity remaining, percent of control: 15%
MDA-MB-231 cells; 48 h
  cell cycle distribution: prominent accumulation in the Gi phase with a concomitant decrease in both S and G2/M phases
MDA-MB-231 cells; 72 h
  cell cycle distribution: prominent accumulation in the G1 phase
MDA-MB-231 cells; MDA-MB-231, conclusion
  site of blockage in cell cycle progression: blockage in cell cycle progression is at the G1 checkpoint
